Measurements published in patent US20110207751A1, “HETEROCYCLIC COMPOUNDS AND USES AS ANTICANCER AGENTS” (priority 2010, published 2011).
Structures can show the parent of a compound that is named as a salt.

How the values were obtained:
MAP-rich tubulin = experiment: In vitro microtubule assembly assay; assay type: biochemical; conditions: absorbance at 405 nm
Protocol: In vitro microtubule assembly assay. Microtubule polymerization was conducted in a 96-well microtiter plate with MAP-rich tubulin and various concentrations of COMPOUND O in a buffer containing 80 mM PIPES pH 6.9, 0.5 mM EGTA, 2 mM MgCl2, 1 mM GTP, 10% glycerol and 4% (v/v) dimethyl sulfoxide (DMSO) based on the HTS-tubulin polymerization assay kit protocol (Cytoskeleton). The increase in absorbance was measured at 405 nm a Beckman Multimode DTX880 plate reader at 37° C. and recorded every 60 seconds for 30 minutes.

[1] = system: U118MG cells (human brain cancer cell line); experiment: Inhibition of cell proliferation, xCelligence cell index; assay type: cell-based; conditions: U-118-MG, 72 hr post compound treatment, read-out: calculated IC50
Text: For measurement of cell-substrate or cell-electrode impedance using RT-CES technology, microelectrodes having appropriate geometries are fabricated onto the bottom surfaces of microtiter plate or similar device, facing into the wells. Cells are introduced into the wells of the devices, and make contact to and attach to the electrode surfaces. The presence, absence or change of properties of cells affects the electronic and ionic passage on the electrode sensor surfaces. Measuring the impedance between or among electrodes provides important information about biological status of cells present on the sensors. When there are changes to the biological status of the cells analogue electronic readout signals are measured automatically and in real time, and are converted to digital signals for processing and for analysis. In a RT-CES system, a cell index (arbitrary representation of change in impedance) is automatically derived and provided based on measured electrode impedance values. The cell index obtained for a given well reflects: 1) how many cells are attached to the electrode surfaces in this well; 2) how well cells are attached to the electrode surfaces in this well. […]
U118MG cells (human brain cancer cell line) were seeded into wells of 96 well E-plate devices (Roche) with an initial seeding density of 5000 cells per well and were pre-incubated in incubator under standard cell culture condition for about 24 hours. […] The cell status was monitored prior to and after the compound addition using xCelligence system (Roche). […]

[2] = system: A549 cells (human lung carcinoma cell line); experiment: Inhibition of cell proliferation, RT-CES cell index; assay type: cell-based; conditions: 72 hr post compound treatment, read-out: calculated IC50
Text: (§1) The biological activity of compounds disclosed herein was monitored and profiled using the Real-Time Cell Electronic Sensing (RT-CES®) system from ACEA Biosciences, Inc. The RT-CES system utilizes cell-substrate impedance technology to monitor cellular behavior inside tissue culture wells in a microtiter plate format. The technology features in the integration of molecular and cell biology with microelectronics and is based on the electronic detection of biological assay process. The details of this cell electronic sensing technology and associated devices, systems and methods of use are described in U.S. Pat. No. 7,167,585; U.S. Pat. No. 7,468,255; PCT publication number WO 2004/010102; U.S. Pat. No. 7,470,533; and U.S. Pat. No. 7,459,303, each of which is incorporated herein by reference. Additional details of RT-CES technology are further disclosed in U.S. Pat. No. 7,468,255.
(§2) For measurement of cell-substrate or cell-electrode impedance using RT-CES technology, microelectrodes having appropriate geometries are fabricated onto the bottom surfaces of microtiter plate or similar device, facing into the wells. […] When there are changes to the biological status of the cells analogue electronic readout signals are measured automatically and in real time, and are converted to digital signals for processing and for analysis. In a RT-CES system, a cell index (arbitrary representation of change in impedance) is automatically derived and provided based on measured electrode impedance values. […]
(§3) To quantify cell status based on the measured cell-electrode impedance, a parameter termed Cell Index is derived. Cell Index is a quantitative measure of the status of the cells in an electrode-containing well. […]
(§4) A549 cells (human lung carcinoma cell line) were seeded into wells of 96 well E-plate devices (Roche) with an initial seeding density of 5000 cells per well and were pre-incubated in incubator under standard cell culture condition for about 24 hours. […] The cell status was monitored prior to and after the compound addition using RT-CES system (ACEA Biosciences). […]

[3] = system: H596 cells (human adenosquamous lung carcinoma cell line); experiment: Inhibition of cell proliferation, xCelligence cell index; assay type: cell-based; conditions: NCI-H596, 72 hr post compound treatment, read-out: calculated IC50
Text: as §1, §2, §3
as §4, with “H596” for “A549”, “(human adenosquamous” for “(human”, “xCelligence” for “RT-CES”, “(Roche).” for “(ACEA Biosciences).”

[4] = system: H292 cells (human pulmonary lung carcinoma cell line); experiment: as above; assay type: cell-based; conditions: NCI-H292, 72 hr post compound treatment, read-out: calculated IC50
Text: as §1, §2, §3
as §4, with “H292” for “A549”, “(human pulmonary” for “(human”, “xCelligence” for “RT-CES”, “(Roche).” for “(ACEA Biosciences).”

[5] = system: B×PC3 cells (human pancreatic cancer cell line); experiment: as above; assay type: cell-based; conditions: 72 hr post compound treatment, read-out: calculated IC50
Text: as §1, §2, §3
as §4, with “B×PC3” for “A549”, “pancreatic cancer” for “lung carcinoma”, “xCelligence” for “RT-CES”, “(Roche).” for “(ACEA Biosciences).”

[6] = system: HT29 cells (human colon cancer cell line); experiment: as above; assay type: cell-based; conditions: HT-29, 72 hr post compound treatment, read-out: calculated IC50
Text: as §1, §2, §3
as §4, with “HT29” for “A549”, “colon cancer” for “lung carcinoma”, “xCelligence” for “RT-CES”, “(Roche).” for “(ACEA Biosciences).”

IC50 [1] | IC50 [2] | IC50 [3] | IC50 [4] | IC50 [5] | IC50 [6] | Compound | inhibition of tubulin polymerization compared with control sample (MAP-rich tubulin; 5 μM) | effect on tubulin polymerization (MAP-rich tubulin; 0.04 μM) | effect on tubulin polymerization, concentration dependence (MAP-rich tubulin; various concentrations) | effect on tubulin polymerization (MAP-rich tubulin; 5 μM)
4.31 nM | 61.8 nM | 36.9 nM | 2.63 nM | 4.06 nM | 12.7 nM | CC[C@]1(O)C[C@H]2CN(CCc3c([nH]c4ccccc34)[C@@](C(=O)OC)(c3cc4c(cc3OC)N(C=O)[C@H]3[C@@](O)(C(=O)OC)[C@H](OC(C)=O)[C@]5(CC)C=CCN6CC[C@]43[C@@H]65)C2)C1 [vincristine] | more than 50% | – | – | –
13.1 nM | 10.9 nM | 37.9 nM | 10.8 nM | 6.6 nM | 25.4 nM | CCc1ccc(Nc2nc(-c3c(C)nc4sccn34)cs2)cc1 [COMPOUND O, 2-(4-ethylphenyl)amino-4-(6-methylimidazo[2,1-b]thiazol-5-yl)-thiazole monohydrobromide] | – | no inhibition | inhibited in a concentration-dependent manner | –
12.3 nM | 5.3 nM | 12.5 nM | 2.59 nM | 8.86 nM | 2.52 nM | CC(=O)O[C@H]1C(=O)[C@@]2(C)[C@H]([C@H](OC(=O)c3ccccc3)[C@]3(O)C[C@H](OC(=O)[C@H](O)[C@@H](NC(=O)c4ccccc4)c4ccccc4)C(C)=C1C3(C)C)[C@]1(OC(C)=O)CO[C@@H]1C[C@@H]2O [paclitaxel] | – | – | – | further enhanced compared to that of the negative control
